No end group written: not given here.
Assays:
[1] = tested on: methicillin-resistant Staphylococcus aureus (ATCC 33591); conditions: Tables 11-15, no unit printed
Experimental: First, each of Pseudomonas aeruginosa (ATCC 27853) and Staphylococcus aureus (ATCC 29213) was cultured in 3% (w/v) TSB (Tryptic Soy Broth) liquid medium at 37° C. and 200 rpm for 4 hours, and then further cultured under the same conditions for 3 hours to a concentration of 5×10^6 CFU/ml. Strain solutions were prepared by diluting each of the further cultured strains with SP (sodium phosphate; 10 mM sodium phosphate, 1% TSB) buffer to a final concentration of 2×10^5 CFU/ml.
(§1) Then, each peptide at varying concentrations (0 μg/ml to 300 μg/ml) was dispensed into each well of a 96-well microplate, and 100 μl (1×10^5 CFU/ml) of each of the prepared strain solutions was added thereto, mixed therewith, and allowed to react with the peptide in an incubator at 37° C. for 1 hour.
In addition, 30 g/L of TS (tryptic soy) and 15 g/L of agar were dissolved in distilled water and sterilized, and then 25 ml of the solution was poured onto a 100 mm round plate and solidified at room temperature for one day or more, thereby preparing a TS agar plate. 10 μl of each reaction solution of the peptide and the strain was plated on the TS agar plate at a constant size, and incubated in an incubator at 37° C. for 18 hours, and then colony formation on the plate was checked.
Specifically, each type of bacteria was cultured in 3% (w/v) TSB (Tryptic Soy Broth) liquid medium at 37° C. and 200 rpm for 4 hours, and then further cultured under the same conditions for 3 hours to a concentration of 5×10^6 CFU/ml. Strain solutions were prepared by diluting each of the […] of 2×10^5 CFU/ml.
as §1, with “Then, the KU-5878” for “Then, each”
In addition, 10 μl of each reaction solution of the peptide and the strain was plated on the TS agar plate at a constant size, and incubated in an incubator at 37° C. for 18 hours, and then colony formation on the plate was checked.

[2] = tested on: Staphylococcus aureus (ATCC 29213); assay type: cell-based; conditions: for MBC value (μg/ml) against Staphylococcus aureus: ATCC 29213, 1 h; for MBC Staphylococcus aureus: Tables 11-15, no unit printed
Text: (§2) Romo1 protein comprises two α-helices. The present inventors synthesized the α-helix 2 region having both hydrophilicity and hydrophobicity, and evaluated the antibacterial activity thereof using minimum bactericidal concentration (MBC) assay. The α-helix 2 region was named KU-5279 (the 52-79 amino acid region of Romo1 protein). Then, in order to identify peptides that are beneficial for human application and have excellent antibacterial activity, the present inventors synthesized several peptides comprising a sequence of contiguous amino acids starting at any amino acid selected from the 52-79 amino acid region of Romo1 protein, and comparatively evaluated the antibacterial activities of the peptides by minimum bactericidal concentration assay (See Table 1 below for information on each peptide). Evaluation of the antibacterial activity of each peptide by minimum bactericidal concentration assay was specifically performed as follows. First, each of Pseudomonas aeruginosa (ATCC 27853) and Staphylococcus aureus (ATCC 29213) was cultured in 3% (w/v) TSB (Tryptic Soy Broth) liquid medium at 37° C. and 200 rpm for 4 hours, and then further cultured under the same conditions for 3 hours to a concentration of 5×10^6 CFU/ml. Strain solutions were prepared by diluting each of the further cultured strains with SP (sodium phosphate; 10 mM sodium phosphate, 1% TSB) buffer to a final concentration of 2×10^5 CFU/ml. Then, each peptide at varying concentrations (0 μg/ml to 300 μg/ml) was dispensed into each well of a 96-well microplate, and 100 μl (1×10^5 CFU/ml) of each of the prepared strain solutions was added thereto, mixed therewith, and allowed to react with the peptide in an incubator at 37° C. for 1 hour. In addition, 30 g/L of TS (tryptic soy) and 15 g/L of agar were dissolved in distilled water and sterilized, and then 25 ml of the solution was poured onto a 100 mm round plate and solidified at room temperature for one day or more, thereby preparing a TS agar plate. 10 μl of each reaction solution of the peptide and the strain was plated on the TS agar plate at a constant size, and incubated in an incubator at 37° C. for 18 hours, and then colony formation on the plate was checked. The minimum bactericidal concentration was defined as the minimum concentration of the peptide at which no colony was formed, and the experimental results are shown in Table 1 below.

[3] = tested on: Pseudomonas aeruginosa (ATCC 27853); assay type: cell-based; conditions: for MBC value (μg/ml) against Pseudomonas aeruginosa: ATCC 27853, 1 h; for MBC Pseudomonas aeruginosa: Tables 11-15, no unit printed
Text: as §2

CRPA = assay: MBC, evaluation of antibacterial activities of KU-5878 variants; assay type: cell-based; conditions: Tables 11-15, no unit printed
Experimental: Variants were prepared by deleting one amino acid from the amino acid sequence of KU-5878 (SEQ ID NO: 13), and the antibacterial activities thereof were evaluated.
Variants were prepared by deleting two or more amino acids from the amino acid sequence of KU-5878 (SEQ ID NO: 13), and the antibacterial activities thereof were evaluated.
One amino acid in the amino acid sequence of KU-5878 (SEQ ID NO: 13) was substituted, and the antibacterial activities of the peptides were evaluated.
Substitutions of Q62K, S63K and T66K were sequentially added to the amino acid sequence of KU-5878-T59K, and the antibacterial activities of the peptides were evaluated.
An amino acid repeat sequence was added to the C-terminus of KU-5878, and the antibacterial activities of the peptides were evaluated. According to Table 15 below, when the R (arginine) repeat sequence or K (lysine) sequence was added to the C-terminus of KU-5878, the antibacterial activity of the peptide increased.

Row | Sequence | MBC MRSA [1] [mg/L] | MBC value (μg/ml) against Staphylococcus aureus [2] [µg/mL] | MBC Staphylococcus aureus [2] [mg/L] | MBC value (μg/ml) against Pseudomonas aeruginosa [3] [µg/mL] | MBC Pseudomonas aeruginosa [3] [mg/L] | MBC CRPA (CRPA) [mg/L]
1 | KTMMQSGGTFGTFMAIGMGTR [KU-5878-I77T] | > 300 | >300 | > 300 | >300 | > 300 | > 300
2 | KTMMQSGGTFGTFMAKGMGIR [KU-5878-I73K] | > 300 | >300 | > 300 | >300 | > 300 | > 300
3 | KTMMQSGGTFGTFMAWGMGIR [KU-5878-I73W] | > 300 | 300 | 300 | 300 | 300 | 300
4 | KTMMQSGGTFGTFMGIGMGIR [KU-5878-A72G] | > 300 | 350 | > 300 | 350 | > 300 | > 300
5 | KTMMQSGGTFGTKMAIGMGIR [KU-5878-F70K] | > 300 | >300 | > 300 | >300 | > 300 | > 300
6 | KTMMQSGGTFGTWMAIGMGIR [KU-5878-F70W] | > 300 | 300 | 300 | 300 | 300 | 300
7 | KTMMQSGGTWGTFMAIGMGIR [KU-5878-F67W] | 90 | 80 | 80 | 80 | 80 | 80
8 | KTMMQTGGTFGTFMAIGMGIR [KU-5878-S63T] | > 300 | – | > 300 | – | > 300 | > 300
9 | KTMMRSGGTFGTFMAIGMGIR [KU-5878-Q62R] | 90 | – | 80 | – | 80 | 80
10 | KTMMSSGGTFGTFMAIGMGIR [KU-5878-Q62S] | > 300 | – | > 300 | – | > 300 | > 300
